Numbers after ± are expanded uncertainties.
Test: wn = mass fraction of the nth substance listed
Settings: 313.15 K, 100 kPa, Liquid, Pycnometric method

`O=S(=O)([O-])O.[K+]` [hydrogen potassium sulfate] + O showed a mass density (w1 = 0.4722) of 1391 ± 4 kg/m3.
`O=S(=O)([O-])O.[K+]` [hydrogen potassium sulfate] + O=S(=O)(O)O gave a mass density (w2 = 0.6151) of 1832 ± 6 kg/m3.

Reference: the NIST ThermoML archive (doi:10.1021/acs.jced.5b00594)
